Results taken from US9980904B2, “Dry powder formulation” (Teva Branded Pharmaceutical Products R&D, Inc., priority 2014, dated 2018).

Assays:
Type in all cases: physicochemical
[1] = Study 2 equilibration study: aerodynamic particle size distribution analysis (FPF and FPD) during 6 week equilibration
Experimental: (§1) Two batches of fluticasone/salmeterol housed within a Spiromax® device were prepared. […] Each batch was divided into two and equilibrated for six weeks under the conditions specified by each protocol. Protocol 1: 30° C./65% RH (unwrapped) Protocol 2: 40° C. […] Two batches of fluticasone/salmeterol housed within a Spiromax® device were prepared. Combination batches of fluticasone propionate and salmeterol xinafoate were selected at two different strengths, as in study 1. Each batch was divided into two and equilibrated for six weeks under the conditions specified by each protocol. Protocol 1: 30° C./65% RH (unwrapped) Protocol 3: 40° C.

[2] = Study 4 six month stability study: aerodynamic particle size distribution (FPF and FPD)
Experimental: (§2) Following inhaler equilibration according to protocol 2 (six weeks at 40° C./75% RH wrapped in foil with desiccant), eight-week stability tests of fluticasone propionate and salmeterol xinafoate (25 μg/25 μg and 100 μg/25 μg) were conducted. The in-use stability testing was conducted at 30° C./65% RH (unwrapped) as per discussion with the FDA. […] Following inhaler equilibration according to protocol 3 (six weeks at 40° C. wrapped in foil with desiccant), six-month stability tests of fluticasone propionate and salmeterol xinafoate (25 μg/25 μg and 100 μg/25 μg) were conducted. The stability of the formulations was assessed following storage under two different condition sets.

[3] = Study 3 eight week in-use stability study: aerodynamic particle size distribution (FPF and FPD); settings: eight week in-use at 30° C./65% RH (unwrapped) after equilibration by protocol 2
Experimental: as §2

[4] = Study 1 equilibration study: aerodynamic particle size distribution analysis (FPF and FPD) after 6 week equilibration
Experimental: as §1

[5] = Study 2, batch 25/25 μg, 30° C./65% RH (unwrapped)
[6] = Study 2, batch 25/25 μg, 40° C. (wrapped in foil with desiccant)
[7] = Study 2, batch 100/25 μg, 30° C./65% RH (unwrapped)
[8] = Study 2, batch 100/25 μg, 40° C. (wrapped in foil with desiccant)
[9] = Study 4, batch 25/25, six month storage at 25° C./60% RH (wrapped) after equilibration by protocol 3
[10] = Study 4, batch 25/25, six month storage at 40° C. (wrapped) after equilibration by protocol 3
[11] = Study 4, batch 100/25, six month storage at 25° C./60% RH (wrapped) after equilibration by protocol 3
[12] = Study 4, batch 100/25, six month storage at 40° C. (wrapped) after equilibration by protocol 3
[13] = Study 1, batch 25/25 μg Fp/Sx in Spiromax, 30° C./65% RH (unwrapped)
[14] = Study 1, batch 25/25 μg, 40° C. (wrapped in foil with desiccant)
[15] = Study 1, batch 100/25 μg, 30° C./65% RH (unwrapped)
[16] = Study 1, batch 100/25 μg, 40° C. (wrapped in foil with desiccant)

SMILES | Aerodynamic particle size distribution (% change from base) FPD [1, 5] [%] | Aerodynamic particle size distribution (% change from base) FPF [1, 5] [%] | Aerodynamic particle size distribution (% change from base) FPD [1, 6] [%] | Aerodynamic particle size distribution (% change from base) FPF [1, 6] [%] | Aerodynamic particle size distribution (% change from base) FPD [1, 7] [%] | Aerodynamic particle size distribution (% change from base) FPF [1, 7] [%] | Aerodynamic particle size distribution (% change from base) FPD [1, 8] [%] | Aerodynamic particle size distribution (% change from base) FPF [1, 8] [%] | Aerodynamic particle size distribution (% change from base) FPD [2, 9] [%] | Aerodynamic particle size distribution (% change from base) FPF [2, 9] [%] | Aerodynamic particle size distribution (% change from base) FPD [2, 10] [%] | Aerodynamic particle size distribution (% change from base) FPF [2, 10] [%] | Aerodynamic particle size distribution (% change from base) FPD [2, 11] [%] | Aerodynamic particle size distribution (% change from base) FPF [2, 11] [%] | Aerodynamic particle size distribution (% change from base) FPD [2, 12] [%] | Aerodynamic particle size distribution (% change from base) FPF [2, 12] [%] | Aerodynamic particle size distribution (% change from base) FPD ([3]; Study 3, batch 25/25 μg) [%] | Aerodynamic particle size distribution (% change from base) FPF ([3]; Study 3, batch 25/25 μg) [%] | Aerodynamic particle size distribution (% change from base) FPD ([3]; Study 3, batch 100/25 μg) [%] | Aerodynamic particle size distribution (% change from base) FPF ([3]; Study 3, batch 100/25 μg) [%] | also measured
CCC(=O)O[C@]1(C(=O)SCF)[C@H](C)C[C@H]2[C@@H]3C[C@H](F)C4=CC(=O)C=C[C@]4(C)[C@@]3(F)[C@@H](O)C[C@@]21C [Fp, fluticasone propionate] | −19 | −16 | −13 | −12 | −12 | −12 | −16 | −14 | −4 | 0 | −9 | −6 | 0 | 0 | −8 | −6 | −10 | −9 | 0 | 0 | Aerodynamic particle size distribution (% change from base) FPD [4, 13]: −16%; Aerodynamic particle size distribution (% change from base) FPF [4, 13]: −19%; Aerodynamic particle size distribution (% change from base) FPD [4, 14]: −13%; Aerodynamic particle size distribution (% change from base) FPF [4, 14]: −12%; Aerodynamic particle size distribution (% change from base) FPD [4, 15]: −13%; Aerodynamic particle size distribution (% change from base) FPF [4, 15]: −12%; Aerodynamic particle size distribution (% change from base) FPD [4, 16]: −17%; Aerodynamic particle size distribution (% change from base) FPF [4, 16]: −14%
OCc1cc(C(O)CNCCCCCCOCCCCc2ccccc2)ccc1O (centres unmarked) [Sx, salmeterol xinafoate] | −20 | −18 | −2 | −2 | −9 | −10 | 0 | 0 | −5 | 0 | −9 | −4 | −3 | −1 | −13 | −9 | −17 | −14 | −4 | −3 | Aerodynamic particle size distribution (% change from base) FPD [4, 13]: −20%; Aerodynamic particle size distribution (% change from base) FPF [4, 13]: −19%; Aerodynamic particle size distribution (% change from base) FPD [4, 14]: −2%; Aerodynamic particle size distribution (% change from base) FPF [4, 14]: −2%; Aerodynamic particle size distribution (% change from base) FPD [4, 15]: −9%; Aerodynamic particle size distribution (% change from base) FPF [4, 15]: −10%; Aerodynamic particle size distribution (% change from base) FPD [4, 16]: 0%; Aerodynamic particle size distribution (% change from base) FPF [4, 16]: 0%
